Literature values in US20020020828A1, “Non-toxic ethylene glycol-based antifreeze/heat transfer fluid concentrate and antifreeze/heat transfer fluid” (priority 2000, published 2002).

Tested on: humans
Conditions: ingestion

For `OCCO` [EG, 1,2-ethandiol], the “toxic level in humans (reported as low as)” value is given as 1,570 mg/kg.
